One series concerns the target T1, human Ox2R (Homo sapiens, UniProt O43614).
T1 construct: The gene encoding hOx2R was subcloned into the expression plasmid pcDNA5/FRT/TO; expressed in transfected cells; host or cells: CHO Flp-In cells (pcDNA5/FRT/TO with pOG44 Flp recombinase vector, hygromycin B selection)
T1 sequence (O43614 1-444): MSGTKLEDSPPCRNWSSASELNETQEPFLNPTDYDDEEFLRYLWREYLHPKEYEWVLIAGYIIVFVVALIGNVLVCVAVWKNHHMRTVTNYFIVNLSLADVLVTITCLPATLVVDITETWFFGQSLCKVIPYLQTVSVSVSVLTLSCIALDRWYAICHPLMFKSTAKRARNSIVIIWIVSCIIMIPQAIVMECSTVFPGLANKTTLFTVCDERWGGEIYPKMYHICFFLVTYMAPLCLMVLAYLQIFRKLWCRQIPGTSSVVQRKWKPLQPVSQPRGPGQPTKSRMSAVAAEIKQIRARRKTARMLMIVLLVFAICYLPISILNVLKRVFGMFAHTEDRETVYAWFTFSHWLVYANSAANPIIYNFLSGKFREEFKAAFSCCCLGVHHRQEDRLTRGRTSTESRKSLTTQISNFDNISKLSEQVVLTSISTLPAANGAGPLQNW
Put plainly: Measurement of OX2R agonist activity (cell-based calcium release assay). Conditions: hOx2R-CHO Flp-In cells, n≥2 tests; for EC50: intracellular calcium, read-out: EC50; for Emax: normalized to assay buffer (0%) and 10 μM Danavorexton (100%), read-out: Emax (%). The gist of the method:
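CHO Flp-In cells stably expressing human Ox2R, dye-loaded 1 h at 37 °C in HBSS/20 mM HEPES pH 7.4 with 2.5 mM probenecid and 10 mM CaCl2, then stimulated with compound.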
On the technique in general: A change in cytosolic calcium serves as a functional read-out for many receptors and channels.

In the next series the target is T2, P-gp (MDR1) (Homo sapiens, UniProt P08183).
T2 construct: host or cells: MDCKII (canine kidney) cells transfected with human MDR1
The experiment in a line: MDR1-MDCKII assay (bidirectional transport). Type of series: in vitro ADME. Conditions: MDCK-MDR1, pH 7.4, test compound 0.5 μM, MDR1-MDCKII monolayer; for efflux ratio at 0.5 μM: read-out: ER (efflux ratio); for Papp A→B at 0.5 μM: apical to basolateral. As for the experimental part: Bidirectional transport in MDCKII cells transfected with human MDR1 were assessed according to previously published methodology (Langthaler, K. et al. (2024). Fluids Barriers CNS, 21 (11): 1-15). In brief, cells obtained from the Netherlands Cancer Institute were maintained at 37° C. in α-MEM containing 10% FBS, 100 μg/mL penicillin-G, 100 μg/mL streptomycin, 1% non-essential amino acid under culture conditions of 5% CO2 and 95% relative humidity. Transport of test compound (0.5 μM, 0.4% DMSO final concentrations) across the cell monolayer was determined in triplicate on a single test occasion along with controls for low and high permeability (fenoterol and metoprolol, 2 μM) and P-gp efflux (digoxin, 10 μM). Each compound was loaded onto either the apical side (75 μL) or basolateral side (275 μL) with transport buffer (1% BSA in HBSS with 10 mM HEPES (pH 7.4)) on the opposing side of the cells (e.g. 50 μL or 250 μL on the apical or basolateral side). A sample (25 μL) from the donor compartment was taken 30 s after test compound is loaded onto the plate, resulting in a final incubation volume of 50 μL and 250 μL on apical and basolateral sides respectively. At the end of the incubation period, samples (75 μL) were taken from both sides. The donor samples (25 μL) were firstly diluted with transport buffer (50 μL) and then all samples were quenched in acetonitrile (125 μL) containing internal analytical standards. After centrifugation (20 min, 3220 g, 4° C.) the supernatants were analysed by LC-MS/MS. The apparent permeability coefficient (Papp) and efflux ratio (ER) were calculated using the equations below; where dCr/dt is the compound concentration in the receiver chamber as a function of time (μM/s); Vr is the solution volume in the receiver chamber; A is the surface area of the cell monolayer; C0 is the initial concentration in the donor compartment; and Papp A-B and Papp B-A refer to the apparent permeabilities in the respective directions. Compound permeability is classified as low, moderate, or high according to Papp value binning classifications: <1, 1 to 6 or >6×10^−6 cm/s, respectively. The ER is employed to classify compounds as unlikely, possible, or likely P-gp substrates when ER was: <1.5, 1.5 to <2 or >2, respectively.

T2 sequence (P08183 whole entry): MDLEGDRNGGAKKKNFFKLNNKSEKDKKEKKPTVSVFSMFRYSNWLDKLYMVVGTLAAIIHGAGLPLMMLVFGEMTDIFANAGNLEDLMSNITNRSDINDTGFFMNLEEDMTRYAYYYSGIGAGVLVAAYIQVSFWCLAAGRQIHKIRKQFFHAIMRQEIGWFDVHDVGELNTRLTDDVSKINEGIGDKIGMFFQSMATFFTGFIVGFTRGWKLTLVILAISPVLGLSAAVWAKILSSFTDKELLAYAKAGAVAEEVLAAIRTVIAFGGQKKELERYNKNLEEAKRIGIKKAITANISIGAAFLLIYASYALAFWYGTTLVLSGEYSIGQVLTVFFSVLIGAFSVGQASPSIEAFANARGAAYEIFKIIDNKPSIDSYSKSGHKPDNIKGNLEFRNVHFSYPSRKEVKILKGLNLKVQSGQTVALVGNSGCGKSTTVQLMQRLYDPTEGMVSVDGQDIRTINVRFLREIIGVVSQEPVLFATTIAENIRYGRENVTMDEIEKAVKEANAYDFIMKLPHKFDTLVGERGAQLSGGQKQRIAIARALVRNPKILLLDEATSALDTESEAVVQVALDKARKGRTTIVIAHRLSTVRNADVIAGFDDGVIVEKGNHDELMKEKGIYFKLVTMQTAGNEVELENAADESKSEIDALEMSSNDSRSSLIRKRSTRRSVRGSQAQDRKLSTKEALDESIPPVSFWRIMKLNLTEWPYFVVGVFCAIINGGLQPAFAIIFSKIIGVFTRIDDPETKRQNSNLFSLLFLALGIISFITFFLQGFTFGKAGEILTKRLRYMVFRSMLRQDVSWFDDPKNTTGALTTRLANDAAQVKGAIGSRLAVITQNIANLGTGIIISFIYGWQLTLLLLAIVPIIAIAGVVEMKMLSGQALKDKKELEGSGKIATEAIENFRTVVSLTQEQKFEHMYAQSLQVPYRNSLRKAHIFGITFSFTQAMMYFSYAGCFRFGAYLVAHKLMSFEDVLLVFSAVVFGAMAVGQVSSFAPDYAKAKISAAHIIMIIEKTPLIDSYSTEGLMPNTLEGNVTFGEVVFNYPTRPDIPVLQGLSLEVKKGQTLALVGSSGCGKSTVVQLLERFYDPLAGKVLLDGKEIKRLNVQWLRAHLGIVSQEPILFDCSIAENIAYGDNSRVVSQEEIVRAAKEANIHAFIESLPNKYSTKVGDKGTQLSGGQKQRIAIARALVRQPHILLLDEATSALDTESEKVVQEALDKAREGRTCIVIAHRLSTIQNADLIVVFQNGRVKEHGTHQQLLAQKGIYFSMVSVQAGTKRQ

Consider `CS(=O)(=O)N[C@H]1CC[C@@]2(Cc3cc(c(F)cc3F)-c3cc(F)cc(F)c3OCc3coc2n3)C1` [Example 30, N-[(1′S,14R)-4,6,17,19-tetrafluorospiro[8,12-dioxa-21-azatetracyclo[14.3.1.110,13.02,7]henicosa-1(19),2,4,6,10,13(21),16(20),17-octaene-14,3′-cyclopentane]-1′-yl]methanesulfonamide], for which, at human Ox2R, the EC50 was 0.077 nM and the Emax was found to be 97%. Moreover, on P-gp (MDR1), the efflux ratio at 0.5 μM stood at 1.8 and the Papp A→B at 0.5 μM amounted to 9.04 ×10⁻⁶ cm/s.

Turning to `CS(=O)(=O)N[C@H]1CC[C@@]2(Cc3ccc(Cl)c(c3)-c3cccc(F)c3OCc3coc2n3)C1` [Example 16, N-[(1′S,14R)-19-chloro-6-fluoro-spiro[8,12-dioxa-21-azatetracyclo[14.3.1.110,13.02,7]henicosa-1(19),2,4,6,10,13(21),16(20),17-octaene-14,3′-cyclopentane]-1′-yl]methanesulfonamide], at human Ox2R, the half-maximal effective concentration (EC50) amounted to 0.051 nM and the Emax stood at 99%. In addition, on P-gp (MDR1), the efflux ratio at 0.5 μM amounted to 1 and the Papp A→B at 0.5 μM worked out at 9.31 ×10⁻⁶ cm/s.

On to `CCS(=O)(=O)N[C@H]1CC[C@@]2(Cc3ccc(F)c(c3)-c3cccc(F)c3OCc3coc2n3)C1` [Example 21, N-[(1′S,14R)-6,19-difluorospiro[8,12-dioxa-21-azatetracyclo[14.3.1.110,13.02,7]henicosa-1(19),2,4,6,10,13(21),16(20),17-octaene-14,3′-cyclopentane]-1′-yl]ethanesulfonamide], for which, on human Ox2R, the 50% effective concentration (EC50) stood at 0.083 nM and the maximum response (Emax) came out at 100%. Also, on P-gp (MDR1), the efflux ratio at 0.5 μM was 1.4 and the apparent permeability from apical to basolateral (Papp A→B) at 0.5 μM is 9.89 ×10⁻⁶ cm/s.

For the compound `O=S(=O)(N[C@H]1CC[C@@]2(Cc3ccc(F)c(c3)-c3cccc(F)c3OCc3coc2n3)C1)C1(F)CC1` [Example 116, N-[(1′S,14R)-6,19-difluorospiro[8,12-dioxa-21-azatetracyclo[14.3.1.110,13.02,7]henicosa-1(20),2,4,6,10,13(21),16,18-octaene-14,3′-cyclopentane]-1′-yl]-1-fluoro-cyclopropanesulfonamide], at human Ox2R, the EC50 was found to be 0.068 nM and the Emax is 98%. Further, at P-gp (MDR1), the efflux ratio at 0.5 μM turned out to be 1.5 and the apical-to-basolateral permeability (Papp A→B) at 0.5 μM came out at 3.87 ×10⁻⁶ cm/s.

For `O=S(=O)(N[C@H]1CC[C@@]2(Cc3cc(c(F)cc3F)-c3cccc(F)c3OCc3coc2n3)C1)C1CC1` [Example 104, N-[(1′S,14R)-6,17,19-trifluorospiro[8,12-dioxa-21-azatetracyclo[14.3.1.110,13.02,7]henicosa-1(19),2,4,6,10,13(21),16(20),17-octaene-14,3′-cyclopentane]-1′-yl]cyclopropanesulfonamide], at human Ox2R, the EC50 was 0.08 nM and the Emax worked out at 100%. Besides, at P-gp (MDR1), the efflux ratio at 0.5 μM is 1.6 and the apparent permeability from apical to basolateral (Papp A→B) at 0.5 μM came to 9.52 ×10⁻⁶ cm/s.

As to `CS(=O)(=O)N[C@H]1CC[C@@]2(Cc3cc(c(F)cc3F)-c3cccc(F)c3OCc3csc2n3)C1` [Example 36, N-[(1′S,14R)-6,17,19-trifluorospiro[8-oxa-12-thia-21-azatetracyclo[14.3.1.110,13.02,7]henicosa-1(19),2,4,6,10,13(21),16(20),17-octaene-14,3′-cyclopentane]-1′-yl]methanesulfonamide], at human Ox2R, the EC50 stood at 0.058 nM and the Emax came to 100%. Moreover, at P-gp (MDR1), the efflux ratio at 0.5 μM is 1.1 and the Papp A→B at 0.5 μM came out at 8.23 ×10⁻⁶ cm/s.

Consider `O=S(=O)(CF)N[C@H]1CC[C@@]2(Cc3ccc(F)c(c3)-c3cccc(F)c3OCc3coc2n3)C1` [Example 113, N-[(1′S,14R)-6,19-difluorospiro[8,12-dioxa-21-azatetracyclo[14.3.1.110,13.02,7]henicosa-1(20),2,4,6,10,13(21),16,18-octaene-14,3′-cyclopentane]-1′-yl]-1-fluoro-methanesulfonamide], for which, at human Ox2R, the EC50 is 0.054 nM and the maximal response (Emax) amounted to 95%. For the same compound, on P-gp (MDR1), the efflux ratio at 0.5 μM was 1.3 and the Papp A→B at 0.5 μM came out at 6.47 ×10⁻⁶ cm/s.

With `CS(=O)(=O)N[C@H]1CC[C@@]2(Cc3cc(c(F)cc3F)-c3cccc(F)c3OCc3coc2n3)C1` [Example 39, N-[(1′S,14R)-6,17,19-trifluorospiro[8,12-dioxa-21-azatetracyclo[14.3.1.110,13.02,7]henicosa-1(19),2,4,6,10,13(21),16(20),17-octaene-14,3′-cyclopentane]-1′-yl]methanesulfonamide], at human Ox2R, the EC50 was determined as 0.035 nM and the Emax was found to be 97%. Moreover, at P-gp (MDR1), the efflux ratio at 0.5 μM was determined as 1.1 and the apparent permeability from apical to basolateral (Papp A→B) at 0.5 μM was 10.2 ×10⁻⁶ cm/s.

For `CS(=O)(=O)N[C@H]1CC[C@@]2(Cc3ccc(F)c(c3)-c3cccc(F)c3OCc3coc2n3)C1` [Example 8, N-[(1′S,14R)-6,19-difluorospiro[8,12-dioxa-21-azatetracyclo[14.3.1.110,13.02,7]henicosa-1(19),2,4,6,10,13(21),16(20),17-octaene-14,3′-cyclopentane]-1′-yl]methanesulfonamide], on human Ox2R, the concentration giving a half-maximal response (EC50) was determined as 0.064 nM and the maximal response (Emax) worked out at 99%. Further, on P-gp (MDR1), the efflux ratio at 0.5 μM turned out to be 1.3 and the apical-to-basolateral permeability (Papp A→B) at 0.5 μM is 11.5 ×10⁻⁶ cm/s.

As to `CS(=O)(=O)N[C@H]1CC[C@@]2(CO[C@H]3CC[C@H](CC3)c3cccc(n3)OCc3coc2n3)C1` [Example 42, N-[(1s,1′S,13S,16s)-spiro[7,11,15-trioxa-21,22-diazatetracyclo[14.2.2.12,6.19,12]docosa-2,4,6(22),9,12(21)-pentaene-13,3′-cyclopentane]-1′-yl]methanesulfonamide], at human Ox2R, the concentration giving a half-maximal response (EC50) came to 0.062 nM and the Emax is 98%. At P-gp (MDR1), the efflux ratio at 0.5 μM came out at 1 and the Papp A→B at 0.5 μM was found to be 13 ×10⁻⁶ cm/s.

`CS(=O)(=O)NC1CC[C@@]2(CO[C@H]3CC[C@H](CC3)c3cccc(F)c3OCc3coc2n3)C1` (stereo partly drawn) [Example 100, N-[(1R,1′S,14S,17R)-6-fluorospiro[8,12,16-trioxa-22-azatetracyclo[15.2.2.110,13.02,7]docosa-2,4,6,10,13(22)-pentaene-14,3′-cyclopentane]-1′-yl]methanesulfonamide]: on human Ox2R, the EC50 was 0.037 nM and the Emax worked out at 100%. On P-gp (MDR1), the efflux ratio at 0.5 μM came to 1.8 and the apparent permeability from apical to basolateral (Papp A→B) at 0.5 μM stood at 10.2 ×10⁻⁶ cm/s.

For the compound `CS(=O)(=O)N[C@H]1CC[C@@]2(Cc3cccc(n3)-c3ccccc3OCc3coc2n3)C1` [Example 80, N-[(1′S,14S)-spiro[8,12-dioxa-20,21-diazatetracyclo[14.3.1.110,13.02,7]henicosa-1(20),2,4,6,10,13(21),16,18-octaene-14,3′-cyclopentane]-1′-yl]methanesulfonamide], at human Ox2R, the EC50 was 9900 nM and the Emax was found to be 66%.

With `CS(=O)(=O)N[C@H]1CC[C@@]2(CO[C@H]3CC[C@H](CC3)c3cccc(c3)OCCc3coc2n3)C1` [Example 70, N-[(1s,1′S,14R,17s)-spiro[7,12,16-trioxa-22-azatetracyclo[15.2.2.12,6.110,13]tricosa-2,4,6(23),10,13(22)-pentaene-14,3′-cyclopentane]-1′-yl]methanesulfonamide], at human Ox2R, the EC50 stood at 1.8 nM and the maximum response (Emax) is 98%.

By EC50 is commonly meant the concentration giving half of the maximal effect. Broadly, the Emax is the maximal effect, on the per cent scale that the assay sets. A word on the Papp A→B: it is the apparent permeability from the apical to the basolateral side of a cell layer. The low end stands for slow passage, the high end for fast passage.

The values are drawn from patent US12590106B2, “Spiromacrocyclic orexin 2 receptor agonists” (H. Lundbeck A/S, priority 2023, dated 2026).
